PubChem BioAssay AID330 (DTP/NCI, 2004)
“And” between values parts separate entries of the source, which are not always exact repeats. Identical values can stand only once. Inconclusive results and toxic doses are left out. The calls were made as follows: active = survival T/C of 150% or more; inactive = T/C below 125% in these data.

Tested on: P388 leukemia ip, CD2F1 mice, survival T/C
Assay: NCI In Vivo Anticancer Drug Screen. Data for tumor model P388 Leukemia (intraperitoneal) in CD2F1 (CDF1) mice
Settings: endpoint: median survival time, higher = longer survival
In short: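 Mice carrying the transplanted tumor received test compound or vehicle. Survival was recorded in each group, and the value is the treated-group measurement divided by that of the vehicle-treated control group.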

[1] = dose: 25.0 mg/kg/injection, schedule: Q01DX009 (ip), vehicle: saline with Tween-80
[2] = dose: 50.0 mg/kg/injection, schedule: Q01DX009 (ip), vehicle: saline with Tween-80
[3] = dose: 100.0 mg/kg/injection, schedule: Q01DX009 (ip), vehicle: saline with Tween-80
[4] = dose: 200.0 mg/kg/injection, schedule: Q01DX009 (ip), vehicle: saline with Tween-80
[5] = dose: 25.0 mg/kg/injection, schedule: Q01DX005 (ip), vehicle: Klucel (hydroxypropylcellulose) (HPC)
[6] = dose: 50.0 mg/kg/injection, schedule: Q01DX005 (ip), vehicle: Klucel (hydroxypropylcellulose) (HPC)
[7] = dose: 100.0 mg/kg/injection, schedule: Q01DX005 (ip), vehicle: Klucel (hydroxypropylcellulose) (HPC)
[8] = dose: 200.0 mg/kg/injection, schedule: Q01DX005 (ip), vehicle: Klucel (hydroxypropylcellulose) (HPC)
[9] = dose: 50.0 mg/kg/injection, schedule: Q01DX005 (ip), vehicle: saline with Tween-80
[10] = dose: 100.0 mg/kg/injection, schedule: Q01DX005 (ip), vehicle: saline with Tween-80
[11] = dose: 200.0 mg/kg/injection, schedule: Q01DX005 (ip), vehicle: saline with Tween-80

Measured: T/C

O=C(/C=C/c1ccc(Cl)cc1)c1ccccc1O
inactive: [1] 98 % of control | [2] 103 % of control | [3] 107 % of control | [4] 100 % of control

COc1c(OCC(O)CN2CCOCC2)c2c(C)coc2c2ccoc12 (stereo not drawn)
inactive: dose: 60.0 mg/kg/injection, schedule: Q01DX005 (ip), vehicle: Klucel (hydroxypropylcellulose) (HPC) 100 % of control | dose: 120.0 mg/kg/injection, schedule: Q01DX005 (ip), vehicle: Klucel (hydroxypropylcellulose) (HPC) 105 % of control

CC(=O)ON(C(C)=O)C1CCCCC1
inactive: [2] 100 % of control | [3] 97 % of control | [4] 98 % of control

c1cc(CSC2=NCCN2)c2cccc(CSC3=NCCN3)c2c1
inactive: dose: 12.5 mg/kg/injection, schedule: Q01DX005 (ip), vehicle: Klucel (hydroxypropylcellulose) (HPC) 103 % of control | [5] 107 % of control | [6] 103 % of control and 112 % of control

Cc1cc(OC(N)=S)cc(C)c1Cl
inactive: dose: 50.0 mg/kg/injection, schedule: Q01DX009 (ip), vehicle: Klucel (hydroxypropylcellulose) (HPC) 101 % of control | dose: 100.0 mg/kg/injection, schedule: Q01DX009 (ip), vehicle: Klucel (hydroxypropylcellulose) (HPC) 100 % of control | dose: 200.0 mg/kg/injection, schedule: Q01DX009 (ip), vehicle: Klucel (hydroxypropylcellulose) (HPC) 101 % of control

CCN(CC)c1cc(C)c(Cc2c(OC)ccc3ccccc23)cc1C
inactive: [6] 92 % of control | [7] 92 % of control | [8] 99 % of control

O=C(O)C(Cc1c[nH]c2ccccc12)C(=O)NO (stereo not drawn)
inactive: dose: 60.0 mg/kg/injection, schedule: Q01DX005 (ip), vehicle: saline 97 % of control | dose: 120.0 mg/kg/injection, schedule: Q01DX005 (ip), vehicle: saline 97 % of control | dose: 240.0 mg/kg/injection, schedule: Q01DX005 (ip), vehicle: saline 94 % of control

O=C1c2ccccc2C(=O)N1/N=N/N1C(=O)c2ccccc2C1=O
inactive: [5] 99 % of control | [6] 102 % of control | [7] 110 % of control | [8] 106 % of control

CCCCNC(=O)ON1C(=O)c2ccccc2C1=O
inactive: dose: 1.56 mg/kg/injection, schedule: Q01DX009 (ip), vehicle: saline with Tween-80 105 % of control | dose: 3.12 mg/kg/injection, schedule: Q01DX009 (ip), vehicle: saline with Tween-80 105 % of control | dose: 6.25 mg/kg/injection, schedule: Q01DX009 (ip), vehicle: saline with Tween-80 102 % of control and 117 % of control | dose: 12.5 mg/kg/injection, schedule: Q01DX009 (ip), vehicle: saline with Tween-80 110 % of control and 113 % of control | [1] 119 % of control

CCOc1c(N=Nc2ccc(Cl)cc2Cl)c(C)nn1C(=S)SC
inactive: dose: 60.0 mg/kg/injection, schedule: Q01DX005 (ip), vehicle: Klucel + Tween-80 103 % of control | dose: 120.0 mg/kg/injection, schedule: Q01DX005 (ip), vehicle: Klucel + Tween-80 107 % of control

c1ccc(-c2cc3cc4c(cc3[nH]2)Sc2ccccc2O4)cc1
inactive: dose: 110.0 mg/kg/injection, schedule: Q01DX001 (ip), vehicle: Klucel (hydroxypropylcellulose) (HPC) 97 % of control | dose: 220.0 mg/kg/injection, schedule: Q01DX001 (ip), vehicle: Klucel (hydroxypropylcellulose) (HPC) 101 % of control | dose: 440.0 mg/kg/injection, schedule: Q01DX001 (ip), vehicle: Klucel (hydroxypropylcellulose) (HPC) 99 % of control

CN1C2=C(C(=O)CC2)C(c2ccccc2)C2=C1CCC2=O
inactive: dose: 100.0 mg/kg/injection, schedule: Q01DX001 (ip), vehicle: saline with Tween-80 96 % of control | dose: 200.0 mg/kg/injection, schedule: Q01DX001 (ip), vehicle: saline with Tween-80 96 % of control | dose: 400.0 mg/kg/injection, schedule: Q01DX001 (ip), vehicle: saline with Tween-80 96 % of control

c1ccc2c3c([nH]c2c1)CCc1cncnc1-3
inactive: [6] 91 % of control and 97 % of control | [7] 90 % of control and 103 % of control | [8] 99 % of control and 115 % of control

CCCCOC(=O)CCC(CC(=O)OCCCC)C(=O)OCCCC (stereo not drawn)
inactive: dose: 50.0 mg/kg/injection, schedule: Q01DX005 (ip), vehicle: saline 103 % of control | dose: 100.0 mg/kg/injection, schedule: Q01DX005 (ip), vehicle: saline 103 % of control | dose: 200.0 mg/kg/injection, schedule: Q01DX005 (ip), vehicle: saline 105 % of control

O=C(NNc1ccc([N+](=O)[O-])cc1[N+](=O)[O-])Nc1cccc(Cl)c1
inactive: [2] 91 % of control | [3] 99 % of control | [4] 102 % of control

C=C(C)C(C(=O)OCC)C(=O)OCC
inactive: [2] 101 % of control | [3] 107 % of control | [4] 110 % of control

C1=CC2(C=CC13OCCO3)OCCO2
inactive: dose: 25.0 mg/kg/injection, schedule: Q04DX003 (ip), vehicle: Klucel (hydroxypropylcellulose) (HPC) 107 % of control | dose: 50.0 mg/kg/injection, schedule: Q04DX003 (ip), vehicle: Klucel (hydroxypropylcellulose) (HPC) 99 % of control | dose: 100.0 mg/kg/injection, schedule: Q04DX003 (ip), vehicle: Klucel (hydroxypropylcellulose) (HPC) 103 % of control

CCc1cc(C(=O)OC)c(=O)n2c1-c1[nH]c3ccccc3c1CC2
inactive: [6] 94 % of control | [7] 95 % of control | [8] 89 % of control

CCOC(=O)C(CCCOC1CCCCO1)(C(=O)CC)c1ccccc1 (stereo not drawn) (tested in a mixture with another compound)
inactive: dose: 50.0 mg/kg/injection, schedule: Q01DX009 (ip), vehicle: acetone 111 % of control | dose: 100.0 mg/kg/injection, schedule: Q01DX009 (ip), vehicle: acetone 103 % of control | dose: 200.0 mg/kg/injection, schedule: Q01DX009 (ip), vehicle: acetone 107 % of control

C=C(Cl)CSC(=S)N1CCOCC1
inactive: [9] 101 % of control and 102 % of control and 96 % of control | [10] 105 % of control and 107 % of control and 109 % of control | [11] 101 % of control and 120 % of control and 97 % of control

O=C(NS(=O)C1C=CCCC1)OC1CCCCC1c1ccccc1 (stereo not drawn)
inactive: [9] 99 % of control | [10] 100 % of control | [11] 105 % of control

O=C([O-])c1c[n+]2c(cc1C(=O)O)-c1cc3c(cc1CC2)OCO3
inactive: dose: 0.63 mg/kg/injection, schedule: Q01DX009 (ip), vehicle: distilled water + Tween-80 99 % of control | dose: 1.25 mg/kg/injection, schedule: Q01DX009 (ip), vehicle: distilled water + Tween-80 94 % of control | dose: 2.5 mg/kg/injection, schedule: Q01DX009 (ip), vehicle: distilled water + Tween-80 94 % of control | dose: 5.0 mg/kg/injection, schedule: Q01DX009 (ip), vehicle: distilled water + Tween-80 94 % of control | dose: 10.0 mg/kg/injection, schedule: Q01DX009 (ip), vehicle: distilled water + Tween-80 99 % of control | dose: 20.0 mg/kg/injection, schedule: Q01DX009 (ip), vehicle: distilled water + Tween-80 100 % of control

O=C(O)/C=C/c1ccc([N+](=O)[O-])cc1
inactive: [3] 100 % of control | [4] 105 % of control

C(=P(c1ccccc1)(c1ccccc1)c1ccccc1)[P+](c1ccccc1)(c1ccccc1)c1ccccc1
inactive: dose: 3.12 mg/kg/injection, schedule: Q01DX009 (ip), vehicle: saline 111 % of control | dose: 3.12 mg/kg/injection, schedule: Q01DX009 (ip), vehicle: suspension in saline 111 % of control | dose: 6.25 mg/kg/injection, schedule: Q01DX009 (ip), vehicle: saline 104 % of control | dose: 6.25 mg/kg/injection, schedule: Q01DX009 (ip), vehicle: suspension in saline 112 % of control | dose: 12.5 mg/kg/injection, schedule: Q01DX009 (ip), vehicle: suspension in saline 119 % of control
